# Legend:
# Format in all cases: biochemical
# Conditions in all cases: Table 8
# [1] = test system: Rabbit Skeletal myofibrils (rabbit psoas muscle); test: Myofibril ATPase assay (PK/LDH NADH-coupled), skeletal myofibrils
# Method in brief: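 ATPase rate taken as linear-regression slope of A340 (NADH depletion through PK/LDH coupling) over a 75 min kinetic read, with psoas-derived rabbit skeletal myofibrils at pH 7.0. Four-parameter fits of vehicle-normalized activity give EC25 and, where reached, EC50.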
# [2] = molecular target: T1, Porcine Ventricle myofibrils (left ventricle of Yucatan minipigs) (Sus scrofa, UniProt P79293); test: Myofibril ATPase assay (PK/LDH NADH-coupled), ventricle myofibrils
# T1 construct: Myofibrils from porcine cardiac muscle was isolated from the left ventricle of Yucatan minipigs; tissue Exemplar Genetics; host or cells: left ventricle of Yucatan minipigs
# T1 sequence (P79293 whole entry): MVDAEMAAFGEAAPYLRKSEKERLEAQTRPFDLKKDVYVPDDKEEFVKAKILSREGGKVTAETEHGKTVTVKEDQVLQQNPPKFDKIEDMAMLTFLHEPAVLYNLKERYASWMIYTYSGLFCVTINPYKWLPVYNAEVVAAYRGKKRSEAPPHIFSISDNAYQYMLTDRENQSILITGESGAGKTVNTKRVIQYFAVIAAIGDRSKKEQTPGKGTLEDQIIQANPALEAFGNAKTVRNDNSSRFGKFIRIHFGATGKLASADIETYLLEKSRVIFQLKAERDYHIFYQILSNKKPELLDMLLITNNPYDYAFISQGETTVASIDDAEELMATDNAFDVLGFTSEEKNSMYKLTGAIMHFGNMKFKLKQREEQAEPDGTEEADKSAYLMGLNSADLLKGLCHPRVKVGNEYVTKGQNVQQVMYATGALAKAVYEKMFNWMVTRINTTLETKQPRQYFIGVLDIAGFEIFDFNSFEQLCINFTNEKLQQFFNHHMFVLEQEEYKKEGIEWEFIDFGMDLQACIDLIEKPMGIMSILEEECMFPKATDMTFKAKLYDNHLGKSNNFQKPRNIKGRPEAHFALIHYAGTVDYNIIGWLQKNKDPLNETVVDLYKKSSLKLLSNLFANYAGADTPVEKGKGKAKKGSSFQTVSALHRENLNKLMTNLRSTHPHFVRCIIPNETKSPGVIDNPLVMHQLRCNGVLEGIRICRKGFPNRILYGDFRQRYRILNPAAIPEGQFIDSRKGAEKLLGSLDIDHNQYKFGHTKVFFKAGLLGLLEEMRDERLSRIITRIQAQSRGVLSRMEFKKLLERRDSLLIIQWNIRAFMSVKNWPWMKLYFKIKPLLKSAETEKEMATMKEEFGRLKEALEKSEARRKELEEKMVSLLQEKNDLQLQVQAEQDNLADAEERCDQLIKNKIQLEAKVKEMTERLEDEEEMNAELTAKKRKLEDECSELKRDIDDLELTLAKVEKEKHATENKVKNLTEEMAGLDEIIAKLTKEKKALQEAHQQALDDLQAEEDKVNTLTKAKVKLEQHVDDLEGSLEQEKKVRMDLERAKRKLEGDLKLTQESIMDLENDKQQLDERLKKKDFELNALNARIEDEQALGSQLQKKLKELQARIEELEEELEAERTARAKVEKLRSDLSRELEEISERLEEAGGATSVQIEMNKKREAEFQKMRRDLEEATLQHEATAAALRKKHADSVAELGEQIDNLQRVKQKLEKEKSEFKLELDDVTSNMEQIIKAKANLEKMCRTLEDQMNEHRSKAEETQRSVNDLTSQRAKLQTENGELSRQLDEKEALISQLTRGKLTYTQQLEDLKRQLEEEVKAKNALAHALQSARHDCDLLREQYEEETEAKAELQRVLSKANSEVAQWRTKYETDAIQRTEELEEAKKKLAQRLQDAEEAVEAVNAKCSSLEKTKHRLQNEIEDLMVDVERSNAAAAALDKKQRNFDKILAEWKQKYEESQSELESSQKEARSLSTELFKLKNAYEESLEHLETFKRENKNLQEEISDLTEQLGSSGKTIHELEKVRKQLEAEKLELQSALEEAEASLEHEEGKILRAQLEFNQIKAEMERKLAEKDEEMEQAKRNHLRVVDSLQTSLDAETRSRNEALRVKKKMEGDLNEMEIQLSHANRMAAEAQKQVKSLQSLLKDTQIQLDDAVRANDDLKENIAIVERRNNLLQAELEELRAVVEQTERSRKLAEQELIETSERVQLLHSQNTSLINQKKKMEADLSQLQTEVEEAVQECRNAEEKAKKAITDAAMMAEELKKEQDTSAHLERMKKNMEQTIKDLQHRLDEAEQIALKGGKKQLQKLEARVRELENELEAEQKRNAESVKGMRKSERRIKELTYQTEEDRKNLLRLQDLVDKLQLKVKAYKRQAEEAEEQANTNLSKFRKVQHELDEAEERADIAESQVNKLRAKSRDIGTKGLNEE
# Method in brief: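 NADH depletion (A340) coupled through pyruvate kinase/lactate dehydrogenase reports ATPase rate of porcine left-ventricle myofibrils over 75 min kinetic reads. Regression slopes, vehicle-normalized, fitted by 4-parameter logistic give EC25 and, where available, EC50.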
# Porcine Atria myofibrils = test: Myofibril ATPase assay (PK/LDH NADH-coupled), atria myofibrils
# Method in brief: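 Values are EC25% (and, for inhibitors, EC50%) from 4-parameter logistic fits of activity normalized to vehicle wells. Rates came from linear regression of 340 nm kinetic reads (every 1.5-2 min, 75 min) of NADH-coupled ATP turnover by porcine atria myofibrils.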
SMILES,Rabbit Psoas IC25 [1] [nM],Porcine Ventricle IC25 [2] [nM],Porcine Atria IC25 (Porcine Atria myofibrils) [nM]
C[C@@H](NC(=O)CN1Cc2c(ccc(F)c2F)NC1=O)c1cc(C#N)c(F)cn1 [Compound B52],3964,1456,420
Cc1nc(C#N)cnc1[C@@H](C)NC(=O)CN1Cc2c(ccc(F)c2F)NC1=O [Compound B54],579.6,962.8,110
Cc1cc(F)cc2c1CN(CC(=O)N[C@H](C)c1ccc(C#N)cc1F)C(=O)N2 [Compound B56],1887,1991,1640
Cc1cc(F)cc2c1CN(CC(=O)N[C@@H](C)c1ccc(C#N)cc1F)C(=O)N2 [Compound B57],13.9,89.9,40
Cc1cc(F)cc2c1NC(=O)N(CC(=O)N[C@H](C)c1ccc(C#N)cc1F)C2 [Compound B58],6712,4230,1020
"Cc1cc(F)cc2c1NC(=O)N(CC(=O)N[C@@H](C)c1ccc(C#N)cc1F)C2 [Compound B59, N-[(1S)-1-(4-cyano-2-fluorophenyl)ethyl]-2-(6-fluoro-8-methyl-2-oxo-1,4-dihydroquinazolin-3-yl)acetamide]",81.8,951.9,630
CC(C)C[C@@H](C(=O)N[C@@H](C)c1ccc(F)cc1F)N1Cc2c(ccc(F)c2F)NC1=O [Compound B60],2769,100000,800
CC(C)C[C@H](C(=O)N[C@H](C)c1ccc(F)cc1F)N1Cc2c(ccc(F)c2F)NC1=O [Compound B61],100000,100000,100000
O=C(CN1Cc2c(ccc(F)c2F)NC1=O)N[C@@H]1COCc2cc(F)cc(F)c21 [Compound B62],14.3,41.5,40
O=C(CN1Cc2c(ccc(F)c2F)NC1=O)N[C@H]1COCc2cc(F)cc(F)c21 [Compound B63],100000,100000,1810
N#Cc1cnc2c(c1)OC[C@H]2NC(=O)CN1Cc2c(ccc(F)c2F)NC1=O [Compound B64],777.3,579.8,520
CC(C)C[C@@H](C(=O)N[C@H](C)c1ccc(F)cc1F)N1Cc2cc(F)ccc2NC1=O [Compound B66],100000,100000,100000
Cc1cc([C@@H](C)NC(=O)CN2Cc3c(ccc(F)c3F)NC2=O)ncc1F [Compound B68],58620,1168,2030
Cc1cc(C(C)NC(=O)CN2Cc3c(ccc(F)c3F)NC2=O)ncc1Cl (stereo not drawn) [Compound B70],1912,1114,350
Cc1noc([C@@H](C)NC(=O)CN2Cc3c(ccc(F)c3F)NC2=O)n1 [Compound B71],100000,40660,43180
Cc1noc([C@H](C)NC(=O)CN2Cc3c(ccc(F)c3F)NC2=O)n1 [Compound B72],1903,100000,2250
C[C@@H](NC(=O)CN1Cc2c(ccc(F)c2F)NC1=O)c1cc2c(cn1)OCCN2C [Compound B73],23300,2134,1220
O=C(CN1Cc2c(ccc(F)c2F)NC1=O)N[C@@H]1COCc2cc(F)ccc21 [Compound B75],91.36,14.4,20

SMILES,Rabbit Psoas IC25 [1] [nM],Porcine Ventricle IC25 [2] [nM],Porcine Atria IC25 (Porcine Atria myofibrils) [nM]
CC(NC(=O)CN1Cc2c(ccc(F)c2F)NC1=O)c1ncc(C#N)cc1F (stereo not drawn) [Compound B77],48.8,76.8,40
CC(NC(=O)CN1Cc2cc(F)ccc2NC1=O)c1ccc(C#N)cc1F (stereo not drawn) [Compound B78],41.7,109.1,40
COc1cc(C#N)ncc1[C@@H](C)NC(=O)CN1Cc2c(ccc(F)c2F)NC1=O [Compound B79],266.2,445.4,40
COc1cc(C#N)ncc1[C@H](C)NC(=O)CN1Cc2c(ccc(F)c2F)NC1=O [Compound B80],8828,2778,60
C[C@@H](NC(=O)CN1Cc2c(ccc(F)c2F)NC1=O)c1ncc(Cl)cc1F [Compound B81],5776,409.2,90
C[C@H](NC(=O)CN1Cc2c(ccc(F)c2F)NC1=O)c1ncc(Cl)cc1F [Compound B82],18.3,56.1,30
Cc1cc(C#N)ncc1[C@@H](C)NC(=O)CN1Cc2c(ccc(F)c2F)NC1=O [Compound B83],21.4,51.9,40
C[C@@H](NC(=O)CN1Cc2c(ccc(F)c2F)NC1=O)c1nc(-c2ccc(F)cn2)no1 [Compound B85],4582,28590,390
C[C@H](NC(=O)CN1Cc2c(ccc(F)c2F)NC1=O)c1nc(-c2ccc(F)cn2)no1 [Compound B86],100000,100000,100000
O=C(CN1Cc2c(ccc(F)c2F)NC1=O)N[C@H]1COc2ccc(F)cc2C1 [Compound B88],100000,2339,460
"N#Cc1cnc2c(c1)CC[C@H]2NC(=O)CN1Cc2c(ccc(F)c2F)NC1=O [Compound B89, N-[(7R)-3-Cyano-5H,6H,7H-cyclopenta[b]pyridin-7-yl]-2-(5,6-difluoro-2-oxo-1,4-dihydroquinazolin-3-yl)acetamide]",78.47,246.9,70
N#Cc1cnc2c(c1)CC[C@@H]2NC(=O)CN1Cc2c(ccc(F)c2F)NC1=O [Compound B90],100000,100000,10980
C[C@@H](NC(=O)CN1Cc2c(ccc(F)c2F)NC1=O)c1cnc(C#N)cn1 [Compound B91],391.3,783,140
C[C@H](NC(=O)CN1Cc2c(ccc(F)c2F)NC1=O)c1cnc(C#N)cn1 [Compound B92],19.09,51.26,30
C[C@@H](NC(=O)CN1Cc2c(ccc(F)c2F)NC1=O)c1ccc(Cl)cn1 [Compound B93],11450,5574,1260
C[C@H](NC(=O)CN1Cc2c(ccc(F)c2F)NC1=O)c1ccc(Cl)cn1 [Compound B94],129.4,543.8,90
C[C@@H](NC(=O)CN1Cc2c(ccc(F)c2F)NC1=O)c1nnc(-c2ccccc2F)s1 [Compound B95],100000,100000,1560
C[C@H](NC(=O)CN1Cc2c(ccc(F)c2F)NC1=O)c1nnc(-c2ccccc2F)s1 [Compound B96],21880,100000,1910

# Source: patent publication US12509431B2, “1,4-dihydroquinazolinone compounds and uses thereof” (Edgewise Therapeutics, Inc., priority 2022, dated 2025)
